# From patent US6602873B2, “Angiogenesis inhibiting thiadiazolyl pyridazine derivatives” (Janssen Pharamaceutica, N.V., priority 1997, dated 2003)
# Where a name gives a salt, the structure may show the parent alone.
# Test system: microvessel formation in rat aortic rings
# Test: rat aortic ring model of angiogenesis (inhibition of microvessel formation)
# Format: cell-based
# Settings: microvessel area after eight days in culture vs vehicle-treated control rings
# Method: Angiogenesis inhibitory activity was measured in vitro using the rat aortic ring model of angiogenesis as described by Nicosia, R. F. and Ottinetti in “Laboratory Investigation”, vol. 63, p. 115, 1990. The ability of compounds to inhibit microvessel formation was compared to vehicle-treated control rings. Quantitation (microvessel area) following eight days in culture was performed using an image analysis system, consisting of a light microscope, a CCD camera and an automated, custom-designed image analysis program as described by Nissanov, J., Tuman, R. W., Gruver, L. M., and Fortunato, J. M. in “Laboratory Investigation”, vol 73 (#5), p. 734, 1995. Compounds were tested at several concentrations for determination of inhibitory potency (IC50's).
IC50,IC50 (192 h),Structure (SMILES)
1.33 nM,–,Cc1nsc(-c2ccc(NCCOc3cccc(C(F)(F)F)c3)nn2)n1 [Compound 24]
24.8 nM,–,Cc1ccc(C(C)C)c(OCCCCNc2ccc(-c3nc(C)ns3)nn2)c1 [Compound 29]
12.8 nM,–,Cc1nsc(-c2ccc(NCCCCOc3ccc(Cl)c(Cl)c3)nn2)n1 [Compound 17]
9.2 nM,–,CCN(CCCCOc1cccc(C(F)(F)F)c1)c1ccc(-c2nc(C)ns2)nn1 [Compound 63]
17.9 nM,–,Cc1nsc(-c2ccc(N(C)CCNc3ccccc3)nn2)n1 [Compound 9]
9.38 nM,–,Cc1nsc(-c2ccc(N(C)CCCOc3cccc(C(F)(F)F)c3)nn2)n1 [Compound 51]
80.7 nM,–,Cc1nsc(-c2ccc(N(C)CCCCOc3ccc(Br)cc3[N+](=O)[O-])nn2)n1 [Compound 56]
48.4 nM,–,Cc1nsc(-c2ccc(NCCCCOc3ccc(F)cc3)nn2)n1 [Compound 21]
2.08 nM,–,CN(CCCCOc1cccc(C(F)(F)F)c1)c1ccc(-c2nc(CO)ns2)nn1 [Compound 102]
2 nM,–,Cc1nsc(-c2ccc(N(C)CCCCOc3ccc(F)c(F)c3)nn2)n1 [Compound 45]
17.1 nM,–,Cc1nsc(-c2ccc(N(C)CCCCOc3ccc(Cl)c(Cl)c3)nn2)n1 [Compound 39]
1.85 nM,–,Cc1nsc(-c2ccc(N(C)CCCCOc3cc(F)cc(C(F)(F)F)c3)nn2)n1 [Compound 48]
1.32 nM,–,Cc1nsc(-c2ccc(N(C)CCCCOc3ccccc3Cl)nn2)n1 [Compound 37]
15.8 nM,–,Cc1nsc(-c2ccc(NCCCCOc3ccc(Cl)cc3)nn2)n1 [Compound 16]
8.53 nM,–,Cc1nsc(-c2ccc(NCCCCCCNc3cccc(C(F)(F)F)c3)nn2)n1 [Compound 8]
45.7 nM,–,Cc1nsc(-c2ccc(NCCCCNc3ccccc3)nn2)n1 [Compound 3]
15.6 nM,–,Cc1nsc(-c2ccc(N(C)CCN(C)c3ccccc3)nn2)n1 [Compound 10]
7.33 nM,–,Cc1nsc(-c2ccc(N(C)CCCCOc3cc(C(F)(F)F)cc(C(F)(F)F)c3)nn2)n1 [Compound 53]
37.2 nM,–,Cc1nsc(-c2ccc(N(C)CCCCOc3ccc(Cl)cc3)nn2)n1 [Compound 38]
1.46 nM,–,Cc1nsc(-c2ccc(N(C)CCCCOc3cccc(C(F)(F)F)c3F)nn2)n1 [Compound 46]

IC50,IC50 (192 h),Structure (SMILES)
0.622 nM,–,Cc1nsc(-c2ccc(NCCCCCOc3cccc(C(F)(F)F)c3)nn2)n1 [Compound 27]
5.53 nM,–,Cc1ccc(C(C)C)c(OCCCCN(C)c2ccc(-c3nc(C)ns3)nn2)c1 [Compound 62]
7.01 nM,–,CN(C)c1nsc(-c2ccc(N(C)CCOc3cccc(C(F)(F)F)c3)nn2)n1 [Compound 100]
21.2 nM,–,Cc1nsc(-c2ccc(NCCCCCNc3ccccc3)nn2)n1 [Compound 4]
1.87 nM,–,Cc1nsc(-c2ccc(N(C)CCCCN(C)c3cccc(C(F)(F)F)c3)nn2)n1 [Compound 111]
40.4 nM,–,Cc1nsc(-c2ccc(NCCCOc3cccc(C(F)(F)F)c3)nn2)n1 [Compound 25]
11.5 nM,–,COc1ccc(OCCCCN(C)c2ccc(-c3nc(C)ns3)nn2)c(Cl)c1 [Compound 40]
29.4 nM,–,Cc1nsc(-c2ccc(N(C)CCCCOc3ccccc3)nn2)n1 [Compound 35]
1.6 nM,–,CN(C)c1nsc(-c2ccc(NCCCCCCNc3cccc(C(F)(F)F)c3)nn2)n1 [Compound 97]
13.7 nM,–,Cc1nsc(-c2ccc(N(C)CCCCOc3ccc([N+](=O)[O-])c(C(F)(F)F)c3)nn2)n1 [Compound 54]
15.2 nM,–,Cc1nsc(-c2ccc(N(C)CCCCOc3ccc(F)cc3F)nn2)n1 [Compound 44]
31.2 nM,–,Cc1nsc(-c2ccc(NCCCCOc3ccc(Br)cc3)nn2)n1 [Compound 14]
35.1 nM,–,Cc1cccc(OCCCCN(C)c2ccc(-c3nc(C)ns3)nn2)c1 [Compound 61]
37.9 nM,–,Cc1nsc(-c2ccc(NCCCCNc3cccc(C(F)(F)F)c3)nn2)n1 [Compound 108]
16.4 nM,–,Cc1nsc(-c2ccc(NCCCCCCNc3ccccc3)nn2)n1 [Compound 5]
0.428 nM,–,Cc1nsc(-c2ccc(NCCNc3cccc(C(F)(F)F)c3)nn2)n1 [Compound 6]
2.78 nM,–,Cc1nsc(-c2ccc(N(C)CCCCOc3ccc(F)cc3)nn2)n1 [Compound 43]
51.1 nM,–,Cc1nsc(-c2ccc(N(C)CCCCOc3cccc([N+](=O)[O-])c3)nn2)n1 [Compound 57]
13.3 nM,–,Cc1nsc(-c2ccc(N(C)CCNc3cccc(C(F)(F)F)c3)nn2)n1 [Compound 112]
3.07 nM,–,FC(F)(F)c1cccc(OCCNc2ccc(-c3ncns3)nn2)c1 [Compound 98]

IC50,IC50 (192 h),Structure (SMILES)
–,5.56 nM,"Cc1nsc(-c2ccc(N(C)CCCCOc3cccc(C(F)(F)F)c3)nn2)n1 [Compound 52, N-methyl-6-(3-methyl-1,2,4-thiadiazol-5-yl)-N-[4-[3-(trifluoromethyl)phenoxy]butyl]-3-pyridazinamine]"
32.4 nM,–,CN(C)c1nsc(-c2ccc(NCCCCOc3cccc(C(F)(F)F)c3)nn2)n1 [Compound 67]
45.4 nM,–,Cc1nsc(-c2ccc(NCCCNc3cccc(C(F)(F)F)c3)nn2)n1 [Compound 7]
90.8 nM,–,FC(F)(F)c1cccc(OCCCCNc2ccc(-c3ncns3)nn2)c1 [Compound 11]
3.97 nM,–,Cc1nsc(-c2ccc(NCCCCOc3cccc(C(F)(F)F)c3)nn2)n1 [Compound 26]
5.3 nM,–,Cc1nsc(-c2ccc(N(C)CCCCOc3ccc(Br)cc3)nn2)n1 [Compound 36]
0.83 nM,–,Cc1nsc(-c2ccc(N(C)CCOc3cccc(C(F)(F)F)c3)nn2)n1 [Compound 50]
–,4.71 nM,"Cc1nsc(-c2ccc(SCCCCOc3cccc(C(F)(F)F)c3)nn2)n1 [Compound 94, 3-(3-methyl-1,2,4-thiadiazol-5-yl)-6-[[4-[3-(trifluoromethyl)phenoxy]butyl]thio]pyridazine]"
–,3.62 nM,"Cc1nsc(-c2ccc(N(C)CCCCOc3ccc(C(F)(F)F)cc3)nn2)n1 [Compound 55, N-methyl-6-(3-methyl-1,2,4-thiadiazol-5-yl)-N-[4-[4-(tri-fluoromethyl)phenoxy]butyl]-3-pyridazinamine monohydrochloride]"
42.2 nM,–,Cc1nsc(-c2ccc(N(C)CCCCOc3cccc(F)c3)nn2)n1 [Compound 42]
2.56 nM,–,Cc1nsc(-c2ccc(N(C)CCCCOc3ccccc3F)nn2)n1 [Compound 41]
0.312 nM,–,Cc1nsc(-c2ccc(N(C)CCCCOc3ccccc3C(F)(F)F)nn2)n1 [Compound 49]
20.3 nM,–,Cc1nsc(-c2ccc(N(C)CCCNc3cccc(C(F)(F)F)c3)nn2)n1 [Compound 104]
72.6 nM,–,Cc1nsc(-c2ccc(NCCCCOc3ccc(F)cc3F)nn2)n1 [Compound 22]
6.98 nM,–,Cc1nsc(-c2ccc(N(C)CCN(Cc3ccccc3)c3cccc(C(F)(F)F)c3)nn2)n1 [Compound 110]
6.31 nM,–,COc1cccc(OCCCCNc2ccc(-c3nc(C)ns3)nn2)c1 [Compound 30]
1.76 nM,–,Cc1nsc(-c2ccc(NCCCCCCOc3cccc(C(F)(F)F)c3)nn2)n1 [Compound 28]
1.34 nM,–,Cc1nsc(-c2ccc(NCCCCOc3ccccc3Cl)nn2)n1 [Compound 15]
1.49 nM,–,Cc1nsc(-c2ccc(NCCN(C)c3cccc(C(F)(F)F)c3)nn2)n1 [Compound 105]
12.5 nM,–,Cc1nsc(-c2ccc(N(C)CCCCOc3cc(C(F)(F)F)ccc3F)nn2)n1 [Compound 47]

Structure (SMILES),IC50,IC50 (192 h)
Cc1nsc(-c2ccc(N(C)CCCCC(=O)c3cccc(C(F)(F)F)c3)nn2)n1 [Compound 70],12.2 nM,–
Cc1nsc(-c2ccc(N(C)CCCCCc3cccc(C(F)(F)F)c3)nn2)n1 [Compound 78],0.28 nM,–
Cc1nsc(-c2ccc(NCCCCSc3cccc(C(F)(F)F)c3)nn2)n1 [Compound 73],2.86 nM,–
Cc1nsc(-c2ccc(N(C)CCCCSc3cccc(C(F)(F)F)c3)nn2)n1 [Compound 74],1 nM,–
Cc1nsc(-c2ccc(N(C)CCCCCc3ccc(F)cc3)nn2)n1 [Compound 76],1.15 nM,–
Cc1nsc(-c2ccc(NCCCCSc3ccc(F)cc3)nn2)n1 [Compound 71],< 0.1 nM,–
Cc1nsc(-c2ccc(NCCCCCc3cccc(C(F)(F)F)c3)nn2)n1 [Compound 77],5.81 nM,–
Cc1nsc(-c2ccc(NCCCCOc3cccc(F)c3)nn2)n1 [Compound 20],8.15 nM,–
Cc1nsc(-c2ccc(N(C)CCCCSc3ccc(F)cc3)nn2)n1 [Compound 72],0.388 nM,–
